Earlier results as cited in patent US3981916A, “Reduction of nitroparaffin substrates to their corresponding oximes using a silver salt catalyst” (priority 1970, dated 1976).

Conditions: 25°C, aqueous solution; literature values (Table I)

pKa (First Acid Dissociation Constant)	Structure (SMILES)
9.98	NCCN [Ethylenediamine]
9.92	NCCNCCNCCN [Triethylenetetramine]
11.50	CN(C)C(=N)N(C)C [Tetramethylguanidine]

Same assay, conditions: water

Structure (SMILES)	pKa (First Acid Dissociation Constant)
NCCCN [1,3-diaminopropane]	10.54
OCCNCCO [Diethanolamine]	9.35
CCCCCCN [n-Hexylamine]	10.40
CN(C)CCN(C)C [N,N,N,N',-Tetramethyl-ethylenediamine]	5.85
CCCCN [n-Butylamine]	10.59
NCCCNCCCN [3,3'-iminobispropylamine]	10.70

Other lines, results leading:

pKa (First Acid Dissociation Constant)	Structure (SMILES)
11.1	NCCCCCCN [1,6-diaminohexane]
9.9	NCCNCCNCCNCCN [Tetraethylenepentamine]
